Assay results from patent US10908171B2, “Additive channels” (Emulate Inc., priority 2016, dated 2021).
“Also recorded” adds a separate entry of the source. Structures can show the parent of a compound that is named as a salt. Positions of bridges follow the written chain, without caps; N, C: chain ends. Non-standard residues stand in square brackets, D forms with d. Residues, ends and D or L forms follow the SMILES beside them. hArg = N=C(N)NCCCC[C@H](N)C(=O)O; Mpa = O=C(O)CCS

Legend:
re-calcified blood = assay: On-chip anticoagulation of outflowing blood through the anticoagulant port; design: species or system human; details: introduced through the anticoagulant port; vs chips without anticoagulant port
Source text: In order to functionally test the system, re-calcified blood was perfused through the inlet while anticoagulant, e.g. citrate buffer, was introduced online from the port situated next to the outflow port. Thus, blood obtained from the effluent of chips equipped with the anticoagulant port or without anticoagulant port were compared (FIG. 6). From a qualitative point of view the difference was striking.
In order to functionally test the additive channel (i.e. microfluidic chamber(s)) attached to the outflow port of a Vessel-On-Chip, re-calcified blood was perfused through the inlet port while citrate was introduced online from a port situated next to the outflow port, flowing through the additive channel. Thus, blood obtained from the effluent of chips equipped with the anticoagulant port (additive channel) or without anticoagulant port were compared (FIG. 6). From a qualitative point of view the difference was striking.

platelets = assay: Vessel-On-Chip platelet coverage / aggregation, fluorescence imaging of CD41-labelled platelets in perfused re-calcified blood; assay type: cell-based, human; details: for platelet aggregate formation / platelet coverage: hu5C8 240 μg/ml, sCD40L 10 ng/ml, alone or combined, 60 μl/minute, compared to untreated blood; for platelet coverage: endothelial pre-treatment TNF-α 50 ng/ml 6 hours, or blood with sCollagen 10 μg/ml, vs blood alone
Experimental: (§1) Briefly, human blood was drawn in citrate buffer and used within 4 hours. Platelets were stained using fluorescently labeled non-blocking antibodies for the platelet surface marker CD41 and low dosages of fluorescent fibrinogen were added in order to visualize fibrin deposition. Blood was re-calcified in order to re-establish the full coagulation potential, then introduced in the biomimetic vessel-on-chip from the main inlet (embodiments of inlets shown in FIG. 18A-1, FIG. 18A-2 and FIG. 19C). The outlet of the chip was connected to a pulling syringe pump with a system of tubing and connectors made of medical grade silicon that excludes any metal components or potential causes of platelet activation (FIG. 5A).
After 14 minutes of perfusion, the flow was interrupted and the chips were immediately imaged via fluorescence microscopy (FIG. 18C and FIG. 19D). In healthy conditions, endothelial cells will provide an antithrombotic surface where blood can flow smoothly, and indeed we detected minimal platelet adhesion or fibrin deposition in our vessel-on-chip after blood perfusion in control conditions, FIG. 18C, Blood.
Experiments with Blood: Blood Samples And Endothelium: Citrated human blood (Research Blood Components, Cambridge, Mass.) was used within 4 hours of a blood draw in order to minimize pre-analytical effects on platelet function. Before every experiment, each one of the endothelialized channels (i.e. microchannels having an endothelial cell layer) was inspected via light microscopy. Samples showing any sign of discontinuity in the endothelium were discarded. […] USA) was at room temperature for 20 minutes.
Platelets: Platelets were labeled with human CD41-PE antibody (10 μL/ml, Invitrogen) directly added to the blood and incubated at room temperature for 5 minutes.
(§2) Adding Blood to a Vessel-On-Chip And Flow Conditions: A medical grade plastic reservoir was mounted on the chip, then 800 μl of the blood sample was pipetted into the reservoir. The chip was perfused with the blood by withdrawing it at a rate of 60 μl/minute using a syringe pump. The citrated blood was re-calcified 2 minutes after the beginning of each experiment by adding 100 μl/ml of a solution containing 100 mM calcium chloride and 75 mM magnesium chloride to the blood to permit calcium- and magnesium-dependent platelet function and coagulation.
(§3) Fluorescence Image analysis: Chips perfused with blood samples were immediately imaged via fluorescence microscopy (Olympus IX83, 10× objective UPLFLN10X2, Orca-Flash 4.0 CMOS Camera). Each chamber was inspected along its entire length and 5 images (about 0.25 cm) were captured from the central area of the chamber. Image processing and quantification was performed with an automatic macro compiled in ImageJ and numerical values corresponding to platelet coverage or fibrin florescence were collected and statistically analyzed in Graphpad Prism V7.
(§4) Platelet Coverage: A percentage of signal coverage (or Platelet coverage) was computed from the binary image as the ratio of bright pixels to the total number of pixels in the image. Image processing and quantification was performed with an automatic macro compiled in ImageJ in order to ensure unbiased signal measurements. Numerical values corresponding to platelet coverage or fibrin fluorescence (signal intensity) were collected and statistically analyzed in Graphpad Prism V7.

fibrin = assay: Vessel-On-Chip fibrin deposition, fluorescent fibrinogen imaging; assay type: cell-based, human; details: for fibrin deposition on the endothelium: hu5C8 240 μg/ml, sCD40L 10 ng/ml, alone or combined, compared to untreated blood; for fibrin signal intensity: endothelial pre-treatment TNF-α 50 ng/ml 6 hours, or blood with sCollagen 10 μg/ml, vs blood alone
Experimental: as §1, §2
Visualizing Fibrin Deposition: When analyzing the formation of fibrin, 10 μg/ml of fluorescently labeled fibrinogen (Alexa 488, Invitrogen) was also added to the blood. While fluorescent fibrinogen was barely detected as a diffused fluorescence, fibrin deposition on inflamed cells and sparse clots was easily distinguished since fibrin formed filamentous structures produce a signal intensity that is clearly observed above a background threshold.
as §3, §4

[1] = lupus and/or Crohn's disease; cited from earlier work
[2] = tested on: thrombin anti-thrombin complex (TAT); assay: Thrombin anti-thrombin (TAT) ELISA in plasma of chip effluent; assay type: cell-based, human; details: for levels of TAT: plasma from blood flowing out of the chip, vs untreated blood
Experimental: Thrombin converts fibrinogen into fibrin during clot formation, and anti-thrombin plays a role in maintaining homeostasis by inhibiting the effect of thrombin. Formation of TAT in the microdevice confirms that local and intrinsic generation of thrombin, a potent platelet agonist, occurs in the model and that counter regulatory mechanisms for coagulation are retained. Thus, blood sampled from the Vessel-On-Chip was analyzed for thrombin anti-thrombin complex (TAT), an accepted clinical biomarker for procoagulation^48,49. TAT refers to a factor released upon activation of the coagulation cascade and one of the biomarkers associated with thrombotic events occurring in patients affected with deep vein thrombosis (DVT) or Systemic lupus erythematosus (SLE)^45,46. An enzyme-linked immunosorbent assay (ELISA) was used to quantify the thrombin anti-thrombin complex (TAT).
Thrombin-Anti Thrombin (TAT) Measurement via ELISA: Thrombin Anti-Thrombin (TAT) levels were analyzed in plasma from blood flowing out of the chip device by removing a sample from the outflow port. Thus TAT levels were evaluated in sample effluents collected from the outflow port of the chip using the Human TAT ELISA Kit (Siemens Healthineers) according to the user manual.
Blood sampled from the Vessel-On-Chip outflow port was analyzed for thrombin anti-thrombin complex (TAT), a factor released upon activation of the coagulation cascade and one of the biomarkers associated with thrombotic events occurring in patients affected with deep vein thrombosis (DVT) or SLE^45,46. TAT is an accepted clinical biomarker for procoagulation^48,49. An enzyme-linked immunosorbent assay (ELISA) was used to quantify the thrombin anti-thrombin complex (TAT).

ICAM1 = ICAM1 immunostaining of endothelium; assay type: cell-based, human; details: TNF-α stimulated vs control
Experimental: ICAM1 is shown with examples identified by white arrows. One example of a DAPI stained nuclei is shown inside of a white circle.
TNF-alpha Stimulation: In some experiment endothelial cells were stimulate with 50 ng/ml of TNF (Sigma) for 6 hours in order to induce vascular inflammation before blood perfusion.

FcγRIIa = assay: hu5C8-mediated thrombosis on-chip, FcγRIIa dependence (platelet coverage, fibrin deposition, TAT); assay type: cell-based, human; details: with sCD40L, IV.3 1 μg/ml block or IgG2σ variant in place of hu5C8
Source text: Recent studies conducted on humanized mice expressing the human Fcγ receptors (FCGR2A) have shown that this receptor plays a role in thrombosis leading to the IC-mediated toxicity^12,16,21. […] In order to investigate if the IC5c8-induced thrombosis that we observed in our vessel-on-chip system also relies on an Fc-mediated mechanism, we used two different tool molecules: IgG2σ and IV.3 (FIG. 25A). The IgG2σ variant of hu5C8 has an engineered Fc region^48 that eliminates affinity for the FcγRIIa, while the monoclonal antibody IV.3 is a blocking antibody binding to FcγIIa. Briefly, equimolar concentrations of IgG2σ […] hu5c8 were incubated with […] sCD40L for 20 minutes to form ICIgG2σ or IC5c8, respectively.
Some of the blood samples were treated with IV.3 (1 μg/ml) for 10 minutes to block the FcγRIIa, and then incubated for 20 more minutes with IC5c8. Finally, blood alone (control) or blood incubated with IC5c8, ICIgG2σ or IV.3 was perfused through the biomimetic microfluidic-on-chip for about 10 minutes. We tested 15 donors and all the tested conditions described above were tested in duplicates and analyzed as percentage of platelet coverage based on fluorescence microscopic imaging (FIG. 25B). Five of the donors were also tested for fibrin deposition (FIG. 25C). Finally, effluents plasma obtained from a total of 7 of the donors (including the 5 mentioned before) were used to assess TAT via ELISA (FIG. 25D). […]
Blood from several human donors were aliquoted into groups for the following treatments: controls (PBS), sCD40L, combined hu5C8/sCD40L, combined hu5C8 (IgG2σ/sCD40L combined, and combined hu5C8/sCD40L/IV.3. Each condition was tested with a minimum of 3 donors to a maximum of 15 donors, and all conditions were tested in duplicates and analyzed for platelet coverage (FIG. 25B), fibrin deposition (FIG. 25C), or increased formation of TAT measured in the eluates (FIG. 25D). Platelet coverage and fibrin deposition following treatment were normalized and reported as fold-increase over untreated control values for each donor.

[3] = Eptifibatide 2 μg/ml, endothelium inflamed with TNF-α, n=4

## O=C(O)CC(O)(CC(=O)O)C(=O)O [sodium citrate]
re-calcified blood
  state of blood collected from the effluent: soluble (not clotted) blood

## hu5C8: humanized monoclonal IgG1 antibody against CD40L, alternatively named anti-CD154
platelets
  platelet aggregate formation / platelet coverage: no significant treatment-related effects
fibrin
  fibrin deposition on the endothelium: no significant treatment-related effects
[1]
  thromboembolism and cardiovascular events during clinical trials: multiple incidents of thromboembolism and cardiovascular events

## N=C(N)NCCCC[C@@H]1NC(=O)CCSSC[C@@H](C(N)=O)NC(=O)[C@@H]2CCCN2C(=O)[C@H](Cc2c[nH]c3ccccc23)NC(=O)[C@H](CC(=O)O)NC(=O)CNC1=O [Eptifibatide] ([Mpa][hArg]GDWPC-NH2; disulfide 1-7)
platelets; [3]
  platelet aggregation: significantly inhibited
platelets; Eptifibatide 2 μg/ml, following treatment with sCollagen, n=4
  inhibitory effect on platelet aggregation and fibrin clot formation: comparatively modest
platelets; Eptifibatide 2 μg/ml, samples treated with TNF-α, n=4
  platelet adhesion (image analysis): completely inhibited
platelets; FIG. 18E-1, TNF-α or sCollagen with Eptifibatide, n=4 donors
  platelet coverage in stimulated, pro-thrombotic conditions: suppressed
fibrin; [3]
  fibrin clot formation: significantly inhibited
fibrin; Eptifibatide 2 μg/ml, samples treated with TNF-α
  fibrin signal (image analysis): a significant amount of fibrin signal was still detectable
fibrin; FIG. 18E-2, TNF-α or sCollagen with Eptifibatide, n=4 donors
  fibrin deposition in stimulated, pro-thrombotic conditions: suppressed
[2]; Eptifibatide treatment
  TAT increment associated with TNF-α-induced inflammation: did not inhibit
  TAT increment due to sCollagen treatment: entirely suppressed

## sCollagen: soluble collagen (Soluble Calf Skin, Type I), a standard platelet activator
platelets
  platelet coverage: increased areas of platelet coverage
fibrin
  fibrin signal intensity: increased
[2]
  levels of TAT: minimally increased; also recorded: elevated levels of TAT

## TNF-α
platelets
  platelet coverage: increased areas of platelet coverage
fibrin
  fibrin signal intensity: increased
[2]
  levels of TAT: significantly increased; also recorded: elevated levels of TAT
ICAM1
  expression of ICAM1 in the endothelium: increased expression; also recorded: higher

## hu5C8 (IgG2σ): IgG2σ variant of hu5C8 with an engineered Fc region that eliminates affinity for FcγRIIa
FcγRIIa
  hu5C8-mediated thrombosis on-chip (platelet coverage, fibrin deposition, TAT): did not show signs of thrombosis in any of the endpoints
FcγRIIa; listed as IgG2σ
  hu5C8-mediated thrombosis on-chip (platelet coverage, fibrin deposition, TAT): suppressed
FcγRIIa; listed as hu5C8-IgG2σ
  hu5C8-mediated thrombosis on-chip (platelet coverage, fibrin deposition, TAT): not detected

B1: sCD40L: soluble CD40 ligand (CD154); recombinant human sCD40 Ligand (protein, UniProt P29965 47-261, looked up)
extracellular domain: HRRLDKIEDERNLHEDFVFMKTIQRCNTGERSLSLLNCEEIKSQFEGFVKDIMLNKEETKKENSFEMQKGDQNPQIAAHVISEASSKTTSVLQWAEKGYYTMSNNLVTLENGKQLTVKRQGLYYIYAQVTFCSNREASSQAPFIASLCLKSPGRFERILLRAANTHSSAKPCGQQSIHLGGVFELQPGASVFVNVTDPSQVSHGTGFTSFGLLKL
modifications: extracellular domain
platelets; fold-increase over untreated control
  increase in platelet coverage in some donors: about 2 fold
platelets
  platelet aggregate formation / platelet coverage: no significant treatment-related effects; also recorded: not statistically significant
fibrin
  fibrin deposition on the endothelium: no significant treatment-related effects
